According to patent US20120177697A1, “Excipients In Drug Delivery Vehicles” (Durect Corporation, priority 2003, published 2012):
Counter-ions that a name gives are not always drawn.

Tests used:
[1] = Saturation concentration in de-ionized water; assay type: physicochemical; details: DI water
Protocol: Bupivacaine hydrochloride (Sigma-Aldrich Corporation, St. Louis, Mo.) was dissolved in de-ionized (DI) water at a concentration of 40 mg/ml (saturation). A calculated amount of sodium hydroxide (1 N solution) was added to the solution and the pH of the final mixtures was adjusted to 10 to precipitate the BP base. The precipitated product was filtered, and further washed with DI water for at least three times. The precipitated product was dried at approximately 40° C. in vacuum for 24 hours.

[2] = cited from earlier work

Row | concentration in de-ionized water at saturation [1] | Structure (SMILES) | reported solubility in water [2]
1 | 40000 µg/mL | CCCCN1CCCCC1C(=O)Nc1c(C)cccc1C (centres unmarked) [Bupivacaine hydrochloride] | 
2 |  | CC(=O)OCC(COC(C)=O)OC(C)=O [triacetin] | 7.17 grams in 100 ml of water
